Results reported in patent publication US20100226881A1, “PYRAZOLO[1,5-a]PYRIDINES AND THEIR USE IN CANCER THERAPY” (Auckland Uniservices Limited, priority 2007, published 2010).
Where two headings read alike, the source gives them in different places.

Columns and labels:
p110β/p85 = p110β/p85 (Homo sapiens, UniProt P42338); test: Inhibition of isolated enzyme, PI 3-kinase p110β/p85; type: biochemical; details: recombinant enzyme, 100 μM ATP, average of two experiments
Protocol: (§1) Compounds were evaluated for their ability to inhibit the Class I PI 3-kinase enzymes p110δ/p85, p110α/p85 and p110β/p85. Reaction mixtures comprising 0.1 μg of recombinant enzyme, 10 μg of L-α-phosphatidylinositol, the compound (DMSO only or DMSO+compound to a final concentration of 1%), 2× Lipid Kinase Buffer (40 mM Tris-HCl pH 7.4, 200 mM NaCl, 1 mM EDTA) were activated by the addition of an ATP mix (5 mM MgCl2, 100 μM ATP, 0.1 μL [γ^33P]ATP). […] Firstly, 200 μL of chloroform/methanol (1:1) was added, the biphasic reactions mixed and centrifuged briefly, and the inorganic phase was removed and discarded.

p110δ/p85 = p110δ/p85 (Homo sapiens, UniProt O00329); test: Inhibition of isolated enzyme, PI 3-kinase p110δ/p85; type: biochemical; details: recombinant enzyme, 100 μM ATP, average of two experiments
p110δ/p85, sequence (O00329 whole entry, species assumed): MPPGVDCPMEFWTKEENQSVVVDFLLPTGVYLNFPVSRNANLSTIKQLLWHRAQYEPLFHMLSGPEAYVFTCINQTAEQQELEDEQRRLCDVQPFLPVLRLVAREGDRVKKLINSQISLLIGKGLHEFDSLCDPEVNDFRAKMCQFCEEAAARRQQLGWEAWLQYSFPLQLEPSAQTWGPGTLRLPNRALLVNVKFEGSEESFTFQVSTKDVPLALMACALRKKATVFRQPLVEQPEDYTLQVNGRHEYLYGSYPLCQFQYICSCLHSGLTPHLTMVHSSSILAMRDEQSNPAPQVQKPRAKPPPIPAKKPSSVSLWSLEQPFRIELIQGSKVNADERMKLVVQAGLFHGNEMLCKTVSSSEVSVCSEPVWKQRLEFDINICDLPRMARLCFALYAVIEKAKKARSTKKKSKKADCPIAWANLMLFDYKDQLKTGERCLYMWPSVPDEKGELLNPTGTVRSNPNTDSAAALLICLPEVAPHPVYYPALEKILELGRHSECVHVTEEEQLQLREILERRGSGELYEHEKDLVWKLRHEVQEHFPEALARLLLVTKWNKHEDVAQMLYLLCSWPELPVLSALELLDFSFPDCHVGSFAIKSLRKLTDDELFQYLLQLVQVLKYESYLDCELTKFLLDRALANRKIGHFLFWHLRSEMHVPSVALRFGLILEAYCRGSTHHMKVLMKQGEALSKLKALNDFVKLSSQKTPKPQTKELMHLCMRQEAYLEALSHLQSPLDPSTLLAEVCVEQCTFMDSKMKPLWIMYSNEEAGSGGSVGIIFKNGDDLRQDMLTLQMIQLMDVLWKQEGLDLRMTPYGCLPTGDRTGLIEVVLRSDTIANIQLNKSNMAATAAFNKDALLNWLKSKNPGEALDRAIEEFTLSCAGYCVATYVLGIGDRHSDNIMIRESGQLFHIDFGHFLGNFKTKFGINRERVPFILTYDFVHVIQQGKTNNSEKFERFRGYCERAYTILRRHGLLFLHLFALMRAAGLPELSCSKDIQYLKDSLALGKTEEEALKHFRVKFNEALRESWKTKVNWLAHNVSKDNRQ
p110δ/p85, sequence (P27986 whole entry partner, species assumed): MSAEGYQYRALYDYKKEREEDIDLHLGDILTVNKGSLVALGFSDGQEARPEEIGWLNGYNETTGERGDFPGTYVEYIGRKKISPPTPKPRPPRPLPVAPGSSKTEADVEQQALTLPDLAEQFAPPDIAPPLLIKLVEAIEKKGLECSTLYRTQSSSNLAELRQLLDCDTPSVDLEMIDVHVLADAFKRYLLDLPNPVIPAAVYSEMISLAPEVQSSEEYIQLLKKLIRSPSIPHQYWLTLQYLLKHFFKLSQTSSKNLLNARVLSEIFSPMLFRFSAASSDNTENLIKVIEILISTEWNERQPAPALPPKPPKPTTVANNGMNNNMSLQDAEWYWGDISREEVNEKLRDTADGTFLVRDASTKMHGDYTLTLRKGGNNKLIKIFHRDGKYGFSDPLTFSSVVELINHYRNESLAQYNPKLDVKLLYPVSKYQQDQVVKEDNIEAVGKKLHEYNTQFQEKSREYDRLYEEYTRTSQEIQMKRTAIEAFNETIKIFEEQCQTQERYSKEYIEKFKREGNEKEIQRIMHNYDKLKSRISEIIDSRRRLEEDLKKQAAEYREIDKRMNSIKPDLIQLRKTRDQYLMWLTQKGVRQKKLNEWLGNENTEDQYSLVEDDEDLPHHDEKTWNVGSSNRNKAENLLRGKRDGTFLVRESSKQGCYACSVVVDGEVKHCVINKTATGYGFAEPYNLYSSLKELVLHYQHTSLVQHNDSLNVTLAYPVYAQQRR
Protocol: as §1

NZB5 = test: Cellular growth inhibition (3H-thymidine), NZB5; type: cell-based; details: Homo sapiens, five days, 3H-thymidine incorporation, maximum 20 μM
Protocol: (§2) The compounds were evaluated against two early passage human cell lines NZB5 and NZOV9, whose development and culture have been described [Marshall et al, Oncol. Res. 2004, 14, 297]. The cells were grown in ITS medium (α-modified minimal essential medium supplemented insulin, transferrin, selenite and 5% fetal bovine serum) and grown on 96-well tissue culture plates under an atmosphere of 5% O2, 5% CO2 and 90% N2. Individual wells contained 500-1000 cells (depending on the growth rate) in a volume of 150 μL. Compounds were added at 10-fold concentration steps to a maximum of 20 μM and plates were incubated for five days, with ^3H-thymidine being added over the last 6 h. Cells were harvested and incorporated radioactivity measured. Duplicate samples were analyzed for each compound dose with multiple control samples. Data were fitted by a least-squares method to an exponential of the form y=y0+ae^−bx, where y is the radioactivity (corrected for background and normalized to 100% of the control) x is the radiation dose, and y0, a and b are variables, and the IC50 value defined as the compound concentration reducing ^3H-thymidine levels by 50%.

NZOV9 = test: Cellular growth inhibition (3H-thymidine), NZOV9; type: cell-based; details: Homo sapiens, five days, 3H-thymidine incorporation, maximum 20 μM
Protocol: as §2

p110α/p85 = p110α/p85 (Homo sapiens, UniProt P42336); test: Inhibition of isolated enzyme, PI 3-kinase p110α/p85
p110α/p85, sequence (P42336 whole entry, species assumed): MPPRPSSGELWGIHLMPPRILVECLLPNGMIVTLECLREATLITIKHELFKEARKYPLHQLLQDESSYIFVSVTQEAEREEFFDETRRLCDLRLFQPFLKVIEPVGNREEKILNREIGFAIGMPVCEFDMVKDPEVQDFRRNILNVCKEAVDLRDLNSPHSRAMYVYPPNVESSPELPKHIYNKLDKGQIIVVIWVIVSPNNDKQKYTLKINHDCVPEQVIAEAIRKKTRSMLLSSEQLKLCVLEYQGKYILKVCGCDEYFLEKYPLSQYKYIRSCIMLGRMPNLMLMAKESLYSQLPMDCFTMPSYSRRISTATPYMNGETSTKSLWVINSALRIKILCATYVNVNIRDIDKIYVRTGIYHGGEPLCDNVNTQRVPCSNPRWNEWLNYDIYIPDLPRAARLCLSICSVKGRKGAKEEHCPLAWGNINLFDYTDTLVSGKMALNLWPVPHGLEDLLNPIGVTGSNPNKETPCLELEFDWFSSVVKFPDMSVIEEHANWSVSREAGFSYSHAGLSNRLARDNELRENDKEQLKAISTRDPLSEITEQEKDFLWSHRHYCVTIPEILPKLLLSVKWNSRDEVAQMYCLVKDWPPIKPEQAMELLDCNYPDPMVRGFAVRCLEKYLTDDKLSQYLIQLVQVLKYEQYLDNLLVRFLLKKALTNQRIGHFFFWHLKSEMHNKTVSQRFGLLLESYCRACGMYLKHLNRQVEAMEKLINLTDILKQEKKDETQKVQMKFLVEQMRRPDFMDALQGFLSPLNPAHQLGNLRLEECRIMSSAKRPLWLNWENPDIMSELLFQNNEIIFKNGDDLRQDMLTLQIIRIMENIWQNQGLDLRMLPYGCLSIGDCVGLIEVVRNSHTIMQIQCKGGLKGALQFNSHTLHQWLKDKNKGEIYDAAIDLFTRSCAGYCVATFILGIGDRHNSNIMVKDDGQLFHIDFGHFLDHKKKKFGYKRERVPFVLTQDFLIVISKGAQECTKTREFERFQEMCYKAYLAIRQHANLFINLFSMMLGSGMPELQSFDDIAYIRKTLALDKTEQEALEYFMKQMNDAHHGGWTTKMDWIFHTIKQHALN
p110α/p85, sequence (P27986 whole entry partner, species assumed): as the sequence (P27986 whole entry partner, species assumed) above

[1] = read-out: IC50 (nM) p110α, recombinant enzyme, 100 μM ATP, average of two experiments

p110β/p85, sequence (P42338 whole entry, species assumed): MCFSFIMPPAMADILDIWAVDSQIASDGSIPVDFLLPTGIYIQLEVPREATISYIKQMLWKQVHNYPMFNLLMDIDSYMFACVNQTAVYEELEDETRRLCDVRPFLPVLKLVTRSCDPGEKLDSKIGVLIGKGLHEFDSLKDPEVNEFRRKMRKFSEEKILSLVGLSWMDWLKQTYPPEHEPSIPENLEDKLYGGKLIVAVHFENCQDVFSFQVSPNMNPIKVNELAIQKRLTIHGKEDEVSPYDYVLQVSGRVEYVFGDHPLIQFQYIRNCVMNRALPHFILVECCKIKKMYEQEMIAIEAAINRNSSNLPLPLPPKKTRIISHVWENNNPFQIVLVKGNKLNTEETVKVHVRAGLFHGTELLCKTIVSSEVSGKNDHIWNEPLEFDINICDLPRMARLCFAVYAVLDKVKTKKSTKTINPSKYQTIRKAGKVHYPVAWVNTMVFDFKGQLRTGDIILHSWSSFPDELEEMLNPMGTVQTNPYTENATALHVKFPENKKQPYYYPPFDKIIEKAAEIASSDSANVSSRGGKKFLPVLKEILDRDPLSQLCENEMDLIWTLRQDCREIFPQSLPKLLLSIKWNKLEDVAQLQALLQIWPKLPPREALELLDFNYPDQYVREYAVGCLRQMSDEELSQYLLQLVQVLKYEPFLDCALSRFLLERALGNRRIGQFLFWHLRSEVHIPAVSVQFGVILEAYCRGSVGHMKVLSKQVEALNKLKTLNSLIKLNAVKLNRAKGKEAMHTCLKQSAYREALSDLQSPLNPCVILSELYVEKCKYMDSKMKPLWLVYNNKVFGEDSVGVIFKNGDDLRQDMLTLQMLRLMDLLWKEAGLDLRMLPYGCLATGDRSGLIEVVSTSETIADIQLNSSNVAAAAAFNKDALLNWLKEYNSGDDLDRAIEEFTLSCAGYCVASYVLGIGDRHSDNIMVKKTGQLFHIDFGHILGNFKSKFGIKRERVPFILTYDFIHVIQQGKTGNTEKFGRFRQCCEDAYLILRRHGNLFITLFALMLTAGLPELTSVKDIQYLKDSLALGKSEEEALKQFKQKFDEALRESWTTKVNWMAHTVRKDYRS
p110β/p85, sequence (P27986 whole entry partner, species assumed): as the sequence (P27986 whole entry partner, species assumed) above

Row | Compound | IC50 (p110β/p85) | IC50 (p110δ/p85) | IC50 (p110α/p85; [1]) | IC50 (p110α/p85) | IC50 (NZB5) | IC50 (NZOV9)
1 | CN(N=Cc1cnn2ccc(C#N)cc12)S(=O)(=O)c1cc([N+](=O)[O-])cnc1Cl [E80, 2-Chloro-N′-((5-cyanopyrazolo[1,5-a]pyridin-3-yl)methylene)-N-methyl-5-nitropyridine-3-sulfonohydrazide] | 5800 nM | 230 nM | 23 nM | – | 7.9 µM | 3.4 µM
2 | CN(N=Cc1cnn2ccc(C#N)cc12)C(=O)c1cccc([N+](=O)[O-])c1 [E82, N′-((5-Cyanopyrazolo[1,5-a]pyridin-3-yl)methylene)-N-methyl-3-nitro-benzohydrazide] | 72 nM | 19 nM | 21 nM | – | 1.8 µM | 6 µM
3 | Cc1ccc([N+](=O)[O-])cc1CN(C)N=Cc1cnn2ccc(C#N)cc12 [E84, 3-((2-Methyl-2-(2-methyl-5-nitrobenzyl)hydrazono)methyl)pyrazolo[1,5-a]pyridine-5-carbonitrile] | 48 nM | 39 nM | 41 nM | – | 1.7 µM | 1.9 µM

More lines, main results first:

Row | IC50 (p110β/p85) | IC50 (p110δ/p85) | IC50 (p110α/p85; [1]) | IC50 (p110α/p85) | Compound | IC50 (NZB5) | IC50 (NZOV9)
4 | > 1000 nM | 1450 nM | 250 nM | – | Cc1ccc([N+](=O)[O-])cc1S(=O)(=O)n1ccc(-c2cnn3ccc(Br)cc23)n1 [E88, 5-bromo-3-(1-(2-methyl-5-nitrophenylsulfonyl)-1H-pyrazol-3-yl)pyrazolo[1,5-a]pyridine] | 0.08 µM | 0.07 µM
5 | 5500 nM | 250 nM | 790 nM | – | O=[N+]([O-])c1cccc(S(=O)(=O)c2nc(-c3cnn4ccc(Br)cc34)cs2)c1 [E90, 4-(5-Bromopyrazolo[1,5-a]pyridin-3-yl)-2-(3-nitrophenylsulfonyl)thiazole] | 0.18 µM | 0.61 µM
6 | > 1000 nM | 120 nM | – | 84 nM | Cc1ccc([N+](=O)[O-])cc1Sc1nnc(-c2cnn3ccc(Br)cc23)o1 [E91, 2-(5-Bromopyrazolo[1,5-a]pyridin-3-yl)-5-(2-methyl-5-nitrophenylthio)-1,3,4-oxadiazole] | 0.73 µM | 2.8 µM
